Test results taken from patent publication US12521375B2, “Pharmaceutical composition for treating fatty liver disease” (Shionogi & Co., Ltd., priority 2020, dated 2026).
“And” between values parts separate entries of the source, which are not always exact repeats. Equal values may be shown once.

What was measured:
[1] = test system: mice fed an ultra-high fat, choline-deficient, methionine-lowered diet; assay: Effect on liver fibrosis progression in mice fed ultra-high fat, choline-deficient, methionine-lowered diet; format: in vivo, C57BL/6JJcl mice; design: 3-hydroxybutyric acid in plasma: unit not given here; settings: for Amount of triglyceride in liver / Sirius red-positive area rate / 3-hydroxybutyric acid in plasma / Plasma triglyceride concentration: bid; for Amount of triglyceride in liver / Sirius red-positive area rate: oral, 8 weeks; for gene expression level in the liver, Fasn / gene expression level in the liver, Srebf1: vehicle = 1.00
Procedure: Six-week-old male C57BL/6JJcl mice were fed an ultra-high fat, choline-deficient, methionine-lowered diet (60 kcal % fat content, using lard, choline-deficient, methionine-lowered (0.1%)), and at the same time, the compound of the present invention was suspended in a vehicle (0.5% methylcellulose aqueous solution) so as to have a dose of 3 to 45 mg/kg/10 mL, and orally repeatedly administered (b.i.d.) for 8 weeks. Blood was collected from the tail vein during the repeated administration period, and biochemical parameters in plasma were measured. After 8 weeks of administration, blood was collected from the abdominal vena cava under anesthesia, and then the liver was collected. Paraffin-embedded sections prepared from the collected liver were subjected to Sirius red staining. A degree of fibrosis progression in the liver was determined from a Sirius red-positive area rate and evaluated.

[2] = test system: Malonyl-CoA concentration in organ; assay: Test for evaluating malonyl-CoA concentration in liver and muscles; format: in vivo, BKS.Cg-+Lepr^db/+Lepr^db/Jcl mice; settings: for Malonyl-CoA concentration in organ with vehicle administration group defined as 100%, Liver / Malonyl-CoA concentration in organ with vehicle administration group defined as 100%, Muscle: 2 hours after administration
Procedure: Eight-week-old male BKS.Cg-+Lepr^db/+Lepr^db/Jcl mice were fasted for 4 hours, then the compound of the present invention was orally administered at a dose of 0.3 to 6 mg/5 mL/kg, and 2 hours after administration, the mice were killed by exsanguination through whole blood collection from the abdominal vena cava under anesthesia. Then, the liver and muscles were removed, and a 9% homogenate was prepared in a homogenizing buffer (distilled water: 60% perchloric acid: 85% phosphoric acid=43:5:2). The malonyl-CoA concentration in the tissue was quantified by LC/MS/MS.

[3] = test system: high-fat diet-loaded mice with spontaneous fatty liver; assay: Effect on liver fibrosis progression in high-fat diet-loaded mice with spontaneous fatty liver; format: in vivo, FLS.B6-Lep<ob>/Shi mice; design: 3-hydroxybutyric acid in plasma: unit not given here; settings: for Amount of triglyceride in liver / Sirius red-positive area rate / 3-hydroxybutyric acid in plasma / Plasma triglyceride concentration / Change in hemoglobin A1c (day 26 of administration) − (before start of administration) / Hemoglobin A1c, Before start of administration / Hemoglobin A1c, Day 26 of administration: bid; for Amount of triglyceride in liver / Sirius red-positive area rate: oral, 4 weeks; for Change in hemoglobin A1c (day 26 of administration) − (before start of administration) / Hemoglobin A1c, Before start of administration / Hemoglobin A1c, Day 26 of administration: individual animals
Procedure: Eight-week-old male FLS.B6-Lep/Shi mice were fed a high-fat diet (60 kcal % fat content, using shortening, containing 2% cholesterol and 8.7% fructose), and at the same time, the compound of the present invention was suspended in a 0.5% MC aqueous solution so as to have a dose of 5.5 to 60 mg/kg/5 mL, and orally repeatedly administered (b.i.d.) for 4 weeks. Blood was collected from the tail vein during the repeated administration period, and biochemical parameters in plasma were measured. After 4 weeks of administration, blood was collected from the abdominal vena cava under anesthesia, and then the liver was collected. Paraffin-embedded sections prepared from the collected liver were subjected to Sirius red staining. A degree of fibrosis progression in the liver was determined from a Sirius red-positive area rate and evaluated.

Crl:CD (SD) rats = assay: Influence on platelet count; format: in vivo; settings: for Platelet count: oral, 4 days, SD rats
Procedure: The compound of the present invention was suspended in a 0.5% methylcellulose solution so as to have a dose of 50 to 600 mg/kg/day, and was orally repeatedly administered for 4 days to 6-week-old male Crl:CD (SD) rats under non-fasted conditions. On day 5 from the start of administration, blood was collected from the abdominal vena cava under anesthesia, and […]. A platelet count in plasma was evaluated with an automatic hemocytometer.

In the case of `CC(=O)N[C@@H](C)CC[C@H]1OC[C@H](Oc2nc3c(F)cc(OC4CC4)cc3n2C)CO1` [Compound I-13], the “Amount of triglyceride in liver” value ([1]; 15 mg/kg) is reported as 179 ± 6.8 mg/g tissue, the “Sirius red-positive area rate” value ([1]; 15 mg/kg) is reported as 1.33 ± 0.20% and the “3-hydroxybutyric acid in plasma” value ([1]; 15 mg/kg, Week 0) is reported as 298 ± 27. The Plasma triglyceride concentration ([1]; 15 mg/kg, Week 0) was 61.6 ± 3.1 mg/dL, the “3-hydroxybutyric acid in plasma” value ([1]; 15 mg/kg, Week 1) was 396 ± 30 and the Plasma triglyceride concentration ([1]; 15 mg/kg, Week 1) was 23.7 ± 1.0 mg/dL. The “3-hydroxybutyric acid in plasma” value ([1]; 15 mg/kg, Week 3) was 797 ± 48, the Plasma triglyceride concentration ([1]; 15 mg/kg, Week 3) was 19.8 ± 1.2 mg/dL and the “3-hydroxybutyric acid in plasma” value ([1]; 15 mg/kg, Week 5) was 616 ± 37. For the same compound, the Plasma triglyceride concentration ([1]; 15 mg/kg, Week 5) was 19.0 ± 1.7 mg/dL, the “3-hydroxybutyric acid in plasma” value ([1]; 15 mg/kg, Week 7) was 501 ± 28 and the Plasma triglyceride concentration ([1]; 15 mg/kg, Week 7) was 18.8 ± 1.2 mg/dL. For the same compound, the “gene expression level in the liver, Fasn” value ([1]; 15 mg/kg) was 0.82 ± 0.20, the “gene expression level in the liver, Srebf1” value ([1]; 15 mg/kg) was 0.70 ± 0.19 and the “Amount of triglyceride in liver” value ([1]; 45 mg/kg) was 155 ± 7.1 mg/g tissue. For the same compound, the “Sirius red-positive area rate” value ([1]; 45 mg/kg) was 1.06 ± 0.10 %, the “3-hydroxybutyric acid in plasma” value ([1]; 45 mg/kg, Week 0) was 369 ± 28 and the Plasma triglyceride concentration ([1]; 45 mg/kg, Week 0) was 63.6 ± 3.7 mg/dL. For the same compound, the “3-hydroxybutyric acid in plasma” value ([1]; 45 mg/kg, Week 1) was 378 ± 28, the Plasma triglyceride concentration ([1]; 45 mg/kg, Week 1) was 22.4 ± 2.5 mg/dL and the “3-hydroxybutyric acid in plasma” value ([1]; 45 mg/kg, Week 3) was 688 ± 72. For the same compound, the Plasma triglyceride concentration ([1]; 45 mg/kg, Week 3) was 18.9 ± 1.4 mg/dL, the “3-hydroxybutyric acid in plasma” value ([1]; 45 mg/kg, Week 5) was 564 ± 77 and the Plasma triglyceride concentration ([1]; 45 mg/kg, Week 5) was 16.5 ± 1.7 mg/dL. The “3-hydroxybutyric acid in plasma” value ([1]; 45 mg/kg, Week 7) was 462 ± 45, the Plasma triglyceride concentration ([1]; 45 mg/kg, Week 7) was 15.1 ± 1.0 mg/dL and the “gene expression level in the liver, Fasn” value ([1]; 45 mg/kg) was 0.59 ± 0.09. The “gene expression level in the liver, Srebf1” value ([1]; 45 mg/kg) was 0.34 ± 0.05, the “Sirius red-positive area rate vs vehicle administration group (in words)” value ([1]; dose of 45 mg/kg) was “significantly lower than that of the vehicle administration group” and the “amount of triglyceride in the liver vs vehicle administration group (in words)” value ([1]; dose of 45 mg/kg) was “significantly lower than that of the vehicle administration group”. For the same compound, the “Srebf1 and Fas in the liver (in words)” value ([1]; mouse, in vivo) was “no increase in Srebf1 and Fas in the liver was observed”, the “concentration of 3-hydroxybutyric acid in plasma vs vehicle administration group (in words)” value ([1]; mouse, in vivo) was “higher than that in the vehicle administration group” and the “plasma triglyceride concentration vs vehicle administration group (in words)” value ([1]; mouse, in vivo) was “lower than that in the vehicle administration group”. For the same compound, the “Malonyl-CoA concentration in organ with vehicle administration group defined as 100%, Liver” value (shortened to “Malonyl-CoA concentration … as 100%, Liver”) ([2]; 0.3 mg/kg oral) was 90.9%, the “Malonyl-CoA concentration in organ with vehicle administration group defined as 100%, Muscle” value (from here on “Malonyl-CoA concentration … as 100%, Muscle”) ([2]; 0.3 mg/kg oral) was 72.8% and the “Malonyl-CoA concentration … as 100%, Liver” value ([2]; 1 mg/kg oral) was 86.5%. For the same compound, the “Malonyl-CoA concentration … as 100%, Muscle” value ([2]; 1 mg/kg oral) was 64.9%, the “Malonyl-CoA concentration … as 100%, Liver” value ([2]; 3 mg/kg oral) was 79.9% and the “Malonyl-CoA concentration … as 100%, Muscle” value ([2]; 3 mg/kg oral) was 58.4%. The “malonyl-CoA concentrations in the liver and muscles (in words)” value ([2]; 0.3 to 6 mg/kg oral) was “reduced malonyl-CoA concentrations in the liver and muscles in a compound dose-dependent manner”, the “Amount of triglyceride in liver” value ([3]; 30 mg/kg) was 234 ± 21 mg/g tissue and the “Sirius red-positive area rate” value ([3]; 30 mg/kg) was 3.05 ± 0.28 %. The “3-hydroxybutyric acid in plasma” value ([3]; 30 mg/kg, Week 0) was 252 ± 73, the Plasma triglyceride concentration ([3]; 30 mg/kg, Week 0) was 680 ± 81 mg/dL and the “3-hydroxybutyric acid in plasma” value ([3]; 30 mg/kg, Week 1) was 397 ± 140. The Plasma triglyceride concentration ([3]; 30 mg/kg, Week 1) was 299 ± 27 mg/dL, the “3-hydroxybutyric acid in plasma” value ([3]; 30 mg/kg, Week 4) was 1888 ± 570 and the Plasma triglyceride concentration ([3]; 30 mg/kg, Week 4) was 600 ± 59 mg/dL. The “Change in hemoglobin A1c (day 26 of administration) − (before start of administration)” value (from here on “Change in hemoglobin A1c”) ([3]; 30 mg/kg) was 1.10% and 2.61% and 0.359% and 0.580% and 0.200% and 1.37% and 0.484% and 1.14% and 1.05%, the “Hemoglobin A1c, Before start of administration” value (“Hemoglobin A1c, Before start” for short) ([3]; 30 mg/kg) was 6.40% and 6.59% and 6.70% and 6.32% and 7.03% and 7.49% and 7.05% and 6.78% and 6.28% and the “Hemoglobin A1c, Day 26 of administration” value ([3]; 30 mg/kg) was 7.50% and 9.21% and 7.05% and 6.90% and 7.23% and 8.86% and 7.54% and 7.91% and 7.32%. For the same compound, the “Amount of triglyceride in liver” value ([3]; 45 mg/kg) was 211 ± 19 mg/g tissue, the “Sirius red-positive area rate” value ([3]; 45 mg/kg) was 2.65 ± 0.34 % and the “3-hydroxybutyric acid in plasma” value ([3]; 45 mg/kg, Week 0) was 291 ± 130. For the same compound, the Plasma triglyceride concentration ([3]; 45 mg/kg, Week 0) was 644 ± 89 mg/dL, the “3-hydroxybutyric acid in plasma” value ([3]; 45 mg/kg, Week 1) was 829 ± 490 and the Plasma triglyceride concentration ([3]; 45 mg/kg, Week 1) was 279 ± 40 mg/dL. The “3-hydroxybutyric acid in plasma” value ([3]; 45 mg/kg, Week 4) was 1803 ± 640, the Plasma triglyceride concentration ([3]; 45 mg/kg, Week 4) was 572 ± 54 mg/dL and the “Change in hemoglobin A1c” value ([3]; 45 mg/kg) was 0.591% and 0.429% and −0.888% and −0.504% and 2.17% and 0.162% and 0.562% and 1.50% and 0.667%. For the same compound, the “Hemoglobin A1c, Before start” value ([3]; 45 mg/kg) was 6.58% and 6.74% and 7.06% and 5.77% and 5.87% and 7.03% and 6.43% and 6.83% and 7.47%, the “Hemoglobin A1c, Day 26 of administration” value ([3]; 45 mg/kg) was 7.17% (2×) and 6.17% and 5.26% and 8.04% and 7.19% and 6.99% and 8.33% and 8.13% and the “Amount of triglyceride in liver” value ([3]; 60 mg/kg) was 235 ± 20 mg/g tissue. For the same compound, the “Sirius red-positive area rate” value ([3]; 60 mg/kg) was 2.75 ± 0.36 %, the “3-hydroxybutyric acid in plasma” value ([3]; 60 mg/kg, Week 0) was 217 ± 28 and the Plasma triglyceride concentration ([3]; 60 mg/kg, Week 0) was 829 ± 97 mg/dL. For the same compound, the “3-hydroxybutyric acid in plasma” value ([3]; 60 mg/kg, Week 1) was 351 ± 72, the Plasma triglyceride concentration ([3]; 60 mg/kg, Week 1) was 322 ± 30 mg/dL and the “3-hydroxybutyric acid in plasma” value ([3]; 60 mg/kg, Week 4) was 1260 ± 170. The Plasma triglyceride concentration ([3]; 60 mg/kg, Week 4) was 641 ± 86 mg/dL, the “Change in hemoglobin A1c” value ([3]; 60 mg/kg) was 0.493% and 0.0708% and 0.696% and 0.463% and 0.150% and −0.0552% and 0.719% and −0.0504% and the “Hemoglobin A1c, Before start” value ([3]; 60 mg/kg) was 5.50% and 6.36% and 6.46% and 6.60% and 7.12% and 6.80% and 6.55% and 5.83%. For the same compound, the “Hemoglobin A1c, Day 26 of administration” value ([3]; 60 mg/kg) was 5.99% and 6.43% and 7.16% and 7.06% and 7.27% (2×) and 6.74% and 5.78%, the “Sirius red-positive area rate vs vehicle administration group (in words)” value ([3]; dose of 30, 45, or 60 mg/kg) was “significantly lower than that of the vehicle administration group” and the “amount of triglyceride in the liver vs vehicle administration group (in words)” value ([3]; mouse, in vivo) was “not significantly different from that in the vehicle administration group”. For the same compound, the “concentration of 3-hydroxybutyric acid in plasma vs vehicle administration group (in words)” value ([3]; mouse, in vivo) was “tended to be higher than that in the vehicle administration group”, the “hemoglobin A1c (in words)” value ([3]; mouse, in vivo) was “tended to suppress an increase in hemoglobin A1c” and the “plasma triglyceride concentration vs vehicle administration group (in words)” value ([3]; mouse, in vivo) was “not significantly different from that in the vehicle administration group”. For the same compound, the Platelet count (Crl:CD (SD) rats; 50 mg/kg/day) was 1079 ± 73, the Platelet count (Crl:CD (SD) rats; 100 mg/kg/day) was 1048 ± 65 and the Platelet count (Crl:CD (SD) rats; 200 mg/kg/day) was 1122 ± 87. For the same compound, the “platelet count in SD rats (in words)” value (Crl:CD (SD) rats; within a dose range used for evaluation (50 to 600 mg/kg/day)) was “did not affect the platelet count”.
